This passage reports IC50 and inhibition results from US10358451B2, “Heterocycles useful as IDO and TDO inhibitors” (Hangzhou Innogate Pharma Co., Ltd., priority 2015, dated 2019).

Where only a bound is given, the exact number is not on record here.

The target of one test is human IDO enzyme (IDO1) (Homo sapiens (Human), UniProt P14902). Description: IDO1 enzyme assay. It counts as biochemical. As to conditions: for inhibition at 0.5 µM: read-out: IDO1 (inhibition % at 500 nM). The procedure:
The compounds were initially prepared in DMSO at 10 mM, then diluted in MES buffer to desired concentration. […] The mixture was centrifuged for 1 minute, then pre-incubated at room temperature for 30 minutes. […] The resulting reaction mixture was incubated at 25° C. for 40 minutes. The reaction was terminated by adding 50 ul of 30% (w/v) trichloroacetic acid. The sample was further incubated for 30 min at 60° C. and centrifuged at 2000 rpm for 5 min to remove precipitated protein. The supernatant was used to mix with an equal volume of Ehrlich's reagent (2% w/v p-dimethylaminobenzaldehyde in glacial acetic acid), then mixture was incubated at room temperature for 10 minutes. OD value was read at 490 nm in a spectrophotometer.
wherein High control=no compound; Low control=no enzyme and no compound.
IC50 values were calculated by fitting the doseresponse curves with Xlfit excel add-in version 4.3.1.

A further test has as its target human TDO enzyme (Homo sapiens (Human), UniProt P48775). Description: TDO enzyme assay. As to conditions: for inhibition at 1 µM: read-out: TDO (inhibition % at 1000 nM). It counts as biochemical. The procedure:
In vitro TDO enzymatic activity was determined in a mixture of 50 mM potassium phosphate buffer, pH 6.5; 200 nM human TDO enzyme, 300 μM L-Tryptophan, 0.2 mg/mL Catalase, 20 mM ascorbic Acid and 20 μM Methylene Blue. 100× compounds were prepared in DMSO from 1 mM, then diluted three fold, 8 doses in total. 2 μL compounds were added to 96 well plate, followed by addition of 100 μL 400 nM TDO and 0.4 mg/ml catalase in each well. The mixture was centrifuged for 1 minute, then pre-incubated at room temperature for 10 minutes. The reaction was started by the addition of 100 μL mixture of 600 μM L-Tryptophan, 40 μM methylene blue and 40 mM ascorbic acid in 50 mM potassium phosphate buffer, pH 6.5. […] Copy slope data from Synergy program, and convert slope values to inhibition values. Percent inhibition=(max−conversion)/(max−min)*100. “max” stands for high control; “min” stands for low control. Fit the data in GraphPad Prism5.0 to obtain IC50 values. Equation used is: Y=Bottom+(Top−Bottom)/(1+10^((Log IC50−X)*HillSlope).

Chain of human TDO enzyme (P48775 whole entry): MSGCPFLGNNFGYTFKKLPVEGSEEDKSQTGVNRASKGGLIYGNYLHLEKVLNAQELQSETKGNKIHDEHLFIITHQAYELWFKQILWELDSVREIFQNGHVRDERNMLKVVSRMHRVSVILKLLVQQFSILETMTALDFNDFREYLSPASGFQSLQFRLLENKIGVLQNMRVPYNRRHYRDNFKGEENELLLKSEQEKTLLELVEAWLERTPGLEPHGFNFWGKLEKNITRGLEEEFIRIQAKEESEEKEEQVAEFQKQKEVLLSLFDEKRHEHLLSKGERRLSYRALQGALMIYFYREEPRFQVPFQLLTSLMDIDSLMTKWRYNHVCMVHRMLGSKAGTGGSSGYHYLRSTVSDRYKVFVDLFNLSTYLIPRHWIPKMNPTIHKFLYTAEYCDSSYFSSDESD
Chain of human IDO enzyme (IDO1) (P14902 whole entry): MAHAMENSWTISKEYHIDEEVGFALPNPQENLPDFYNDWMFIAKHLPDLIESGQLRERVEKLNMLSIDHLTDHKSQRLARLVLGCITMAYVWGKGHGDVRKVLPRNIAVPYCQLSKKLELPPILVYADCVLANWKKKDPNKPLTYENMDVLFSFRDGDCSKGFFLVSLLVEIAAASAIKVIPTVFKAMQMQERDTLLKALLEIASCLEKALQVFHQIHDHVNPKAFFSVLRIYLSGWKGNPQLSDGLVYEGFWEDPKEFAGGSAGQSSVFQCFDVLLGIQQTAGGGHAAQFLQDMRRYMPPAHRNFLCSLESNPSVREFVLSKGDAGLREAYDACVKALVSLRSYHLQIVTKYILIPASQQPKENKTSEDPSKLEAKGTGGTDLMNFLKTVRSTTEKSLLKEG

By IC50 is commonly meant the concentration that inhibits the measured activity by half. Compound `OC(CC1c2c(F)cccc2-c2cncn21)C12C[C@@H]3C[C@@H](CC(O)(C3)C1)C2` (stereo partly drawn) [Compound 15d-3, (1s,3r,5R,7S)-3-(2-(6-fluoro-5H-imidazo[5,1-a]isoindol-5-yl)-1-hydroxyethyl)adamantan-1-ol] registered an IC50 against human IDO enzyme (IDO1) below 100 nM.
Regarding `OC1[C@@H]2CC3C[C@H]1CC(C(O)CC1c4c(F)cccc4-c4cncn41)(C3)C2` (stereo partly drawn) [Compound 17, (1R,2s,3S,5s,7s)-5-(2-(6-fluoro-5H-imidazo[5,1-a]isoindol-5-yl)-1-hydroxyethyl)adamantan-2-ol], the IC50 at human IDO enzyme (IDO1) is below 100 nM; at human TDO enzyme it was below 200 nM.
On to `OC(CC1c2c(F)cccc2-c2cncn21)C12C[C@@H]3C[C@@H](CC(O)(C3)C1)C2` (stereo partly drawn) [Compound 15d-1, (1s,3r,5R,7S)-3-(2-(6-fluoro-5H-imidazo[5,1-a]isoindol-5-yl)-1-hydroxyethyl)adamantan-1-ol], for which the IC50 on human IDO enzyme (IDO1) is above 500 nM.
For `OC(CC1c2c(F)cccc2-c2cncn21)C12C[C@@H]3C[C@@H](CC(O)(C3)C1)C2` (stereo partly drawn) [Compound 15d-2, (1s,3r,5R,7S)-3-(2-(6-fluoro-5H-imidazo[5,1-a]isoindol-5-yl)-1-hydroxyethyl)adamantan-1-ol], at human IDO enzyme (IDO1), the half-maximal inhibitory concentration (IC50) was above 500 nM.
In turn, `OC(CC1c2c(F)cccc2-c2cncn21)C12C[C@@H]3C[C@@H](CC(O)(C3)C1)C2` (stereo partly drawn) [Compound 15d-4, (1s,3r,5R,7S)-3-(2-(6-fluoro-5H-imidazo[5,1-a]isoindol-5-yl)-1-hydroxyethyl)adamantan-1-ol] displayed an IC50 on human IDO enzyme (IDO1) above 500 nM.
A word on the inhibition: it is the drop in the measured response relative to a control, in per cent. `OC(CC1c2ccccc2-c2cncn21)C1CCN(C2CC2)CC1` (stereo not shown) [Compound 3, 1-(1-cyclopropylpiperidin-4-yl)-2-(5H-imidazo[5,1-a]isoindol-5-yl)ethanol]: the inhibition at 1 µM at human TDO enzyme was above 50%.
For `O=[N+]([O-])c1ccccc1N1CCC(C(O)CC2c3ccccc3-c3cncn32)CC1` (stereo not shown) [Compound 7, 2-(5H-imidazo[5,1-a]isoindol-5-yl)-1-(1-(2-nitrophenyl)piperidin-4-yl)ethanol], the inhibition at 0.5 µM on human IDO enzyme (IDO1) is above 50%.
Turning to `OC(C1CCCCC1)C1(C2c3ccccc3-c3cncn32)CC1` (stereo not shown) [Compound 13, (1-(5H-imidazo[5,1-a]isoindol-5-yl)cyclopropyl)(cyclohexyl) methanol], on human TDO enzyme, the inhibition at 1 µM was above 50%.
`O=[N+]([O-])c1cc(C(F)(F)F)ccc1N1CCC(C(O)CC2c3ccccc3-c3cncn32)CC1` (stereo not shown) [Compound 9, 2-(5H-imidazo[5,1-a]isoindol-5-yl)-1-(1-(2-nitro-4-(trifluoromethyl)phenyl)piperidin-4-yl)ethanol]: the values for the 50% inhibitory concentration (IC50) on human IDO enzyme (IDO1) and at human TDO enzyme were below 500 nM and below 200 nM, respectively.
The compound `OC(CC1c2ccccc2-c2cncn21)C12CC3CC(CC(C3)C1)C2` (stereo not shown) [Compound 10, 1-((3r,5r,7r)-adamantan-1-yl)-2-(5H-imidazo[5,1-a]isoindol-5-yl)ethanol] had an IC50 against human IDO enzyme (IDO1) below 500 nM. At human TDO enzyme, the inhibition at 1 µM is above 50%.
Turning to `OC(CC1c2c(F)cccc2-c2cncn21)C1C2CC3CC1CC(O)(C3)C2` [Compound 18k-1, (1s,3R,5S,7s)-4-(2-(6-fluoro-5H-imidazo[5,1-a]isoindol-5-yl)-1-hydroxyethyl)adamantan-1-ol], the IC50 against human IDO enzyme (IDO1) is below 500 nM.
In the case of `OC(CC1c2c(F)cccc2-c2cncn21)C12CCC(O)(CC1)CC2` (stereo not shown) [Compound 16, 4-(2-(6-fluoro-5H-imidazo[5,1-a]isoindol-5-yl)-1-hydroxyethyl)bicyclo[2.2.2]octan-1-ol], the IC50 on human IDO enzyme (IDO1) is below 100 nM; at human TDO enzyme, below 200 nM.
With `OC(CC1c2c(F)cccc2-c2cncn21)C1C2CC3CC1CC(O)(C3)C2` [Compound 18k-2, (1s,3R,5S,7s)-4-(2-(6-fluoro-5H-imidazo[5,1-a]isoindol-5-yl)-1-hydroxyethyl)adamantan-1-ol], the 50% inhibitory concentration (IC50) on human IDO enzyme (IDO1) is below 100 nM.
As to `OC(CC1c2ccccc2-c2cncn21)C1CCN(c2ccc(C(F)(F)F)cc2)CC1` (stereo not shown) [Compound 8, 2-(5H-imidazo[5,1-a]isoindol-5-yl)-1-(1-(4-(trifluoromethyl)phenyl)piperidin-4-yl)ethanol], at human IDO enzyme (IDO1), the inhibition at 0.5 µM was above 50%. The inhibition at 1 µM at human TDO enzyme was above 50%.
For `OC(CC1c2c(F)cccc2-c2cncn21)C12C[C@@H]3C[C@@H](CC(O)(C3)C1)C2` (stereo partly drawn) [Compound 15d, (1s,3r,5R,7S)-3-(2-(6-fluoro-5H-imidazo[5,1-a]isoindol-5-yl)-1-hydroxyethyl)adamantan-1-ol], the IC50 is below 100 nM at human IDO enzyme (IDO1) and below 200 nM on human TDO enzyme.
In the case of `OC(CC1c2ccccc2-c2cncn21)C12C[C@@H]3C[C@@H](CC(O)(C3)C1)C2` (stereo partly drawn) [Compound 14f, (1s,3r,5R,7S)-3-(1-hydroxy-2-(5H-imidazo[5,1-a]isoindol-5-yl)ethyl)adamantan-1-ol], the IC50 is below 100 nM against human IDO enzyme (IDO1) and below 200 nM on human TDO enzyme.
With `OC(CC1c2ccccc2-c2cncn21)C1CCN(c2ccccc2)CC1` (stereo not shown) [Compound 1, 2-(5H-imidazo[5,1-a]isoindol-5-yl)-1-(1-phenylpiperidin-4-yl)ethanol], the inhibition at 0.5 µM on human IDO enzyme (IDO1) was above 50%.
Consider `FC(F)(CC1c2ccccc2-c2cncn21)C1CCCCC1` (stereo not shown) [Compound 6, 5-(2-cyclohexyl-2,2-difluoroethyl)-5H-imidazo[5,1-a]isoindole], for which the inhibition at 0.5 µM on human IDO enzyme (IDO1) was above 50%. For the same compound, the inhibition at 1 µM at human TDO enzyme is above 50%.
For `OC(CC1c2c(F)cccc2-c2cncn21)C12CC3CC(CC(C3)C1)C2` (stereo not shown) [Compound 15e, 1-((3r,5r,7r)-adamantan-1-yl)-2-(6-fluoro-5H-imidazo[5,1-a]isoindol-5-yl)ethanol], the IC50 is below 100 nM on human IDO enzyme (IDO1) and below 500 nM on human TDO enzyme.
